Assay results: patent publication US20170191038A1, “TGFß SIGNALING INDEPENDENT NAÏVE INDUCED PLURIPOTENT STEM CELLS, METHODS OF MAKING AND USE” (HONG GUAN Ltd., priority 2014, published 2017)
Structures can show the parent of a compound that is named as a salt.

Legend:
Format in all cases: cell-based, rhesus monkey (Macaca mulatta)
[1] = test system: Rhesus monkey primed iPSCs; assay: Conversion of rhesus monkey primed iPSCs to naive iPSCs (conversion condition optimization, TRA-1-81/TBX3 double-positive dome-shaped colonies); settings: for effect on pluripotency / dome-shaped colony formation during naive conversion: primed iPSCs under 2i/LIF-based conditions, Y27632 10 μM, GÖ6983 5 μM
Protocol: Rhesus monkey primed iPSCs were dissociated into single cells by accutase and reseeded on feeder cells. The converting medium with 4 ng/ml bFGF (R&D Systems), 10 ng/ml human LIF (Millipore), CHIR99021 (3 μM; Stemgent) and PD0325901 (0.5 μM; Stemgent) was changed daily. At approximately day 7 to day 10, dome-shaped colonies were selected and transferred onto fresh feeder cells. Traditional 2i/LIF conditions—10 ng/ml human LIF (Millipore), CHIR99021 (3 μM; Stemgent) and PD0325901 (0.5 μM; Stemgent) were also tested and served as negative control. • (c) Conversion Condition Optimization for Rhesus Monkey Naïve iPSCs
Rhesus monkey primed iPSCs were dissociated into single cells by accutase and reseeded on feeder cells. The basal culture medium with 4 ng/ml bFGF (R&D Systems), 10 ng/ml human LIF (Millipore), CHIR99021 (3 μM; Stemgent) and PD0325901 (0.5 μM; Stemgent) was changed daily. The small molecules tested for culture condition optimization were SB203580 (10 μM; Tocris), SP600125 (10 μM; Tocris), Y27632 (10 μM; Tocris) and GÖ6983 (5 μM; Tocris). After treatment for 8 days, cells were fixed and immunostained for TRA-1-81.
(§1) To detect ALP activity the cells were washed with phosphate-buffered saline three times and stained with BCIP/NBT (Promega) for 15 min. For immunofluorescence, the primary antibodies included those against SSEA-1 (1:50, Chemicon), SSEA-4 (1:20, Santa Cruz Biotechnology), TRA-1-60 (1:50, Santa Cruz Biotechnology), TRA-1-81 (1:50, Santa Cruz Biotechnology), NANOG (1:100, R&D Systems), TBX3 (1:200, Abcam), H3K27me3 (1:200, Millipore), GATA4 (1:200, Santa Cruz Biotechnology), OCT4 (1:200, Abcam) and SOX2 (1:200, Santa Cruz Biotechnology). The secondary antibodies were rhodamine-labeled donkey anti-mouse IgG (1:100, Santa Cruz Biotechnology), rhodamine-labeled donkey anti-rabbit IgG (1:100, Santa Cruz Biotechnology), rhodamine-labeled goat anti-mouse IgM (1:100, Santa Cruz Biotechnology) and rhodamine-labeled donkey anti-goat IgG (1:100, Santa Cruz Biotechnology). DAPI (Roche Applied Science) was used for nuclear staining.

[2] = test system: Rhesus monkey naïve iPSCs; assay: Signaling analysis of rhesus monkey naïve iPSCs (TRA-1-81-positive dome-shaped colonies); settings: optimized conversion conditions; 5 days; Stattic 1 μM, SB431542 10 μM, SU5402 2 μM, TGF-β1 2 ng/ml
Protocol: (§2) Rhesus monkey primed iPSCs were maintained as described (Liu H et al., 2008). […] The tested signaling modulators were SU5402 (2 μM; Tocris), SB431542 (10 μM; Tocris), Stattic (1 μM; Tocris) and TGF-β1 (2 ng/ml, Peprotech). After treatment for 5 days, cells were fixed and immunostained for TRA-1-81.
as §1

[3] = test system: Rhesus monkey primed iPSCs; assay: Signaling analysis of rhesus monkey primed iPSCs (TRA-1-81-positive colonies); settings: hESCs medium; 5 days; Stattic 1 μM, SB431542 10 μM, SU5402 2 μM, TGF-β1 2 ng/ml
Protocol: as §2, §1

Compound | effect on pluripotency / dome-shaped colony formation during naive conversion [1] | self-renewal / pluripotency maintenance of naive iPSCs (TRA-1-81-positive dome-shaped colonies, words) [2] | self-renewal / pluripotency maintenance of primed iPSCs (TRA-1-81-positive colonies, words) [3] | conversion efficiency (TRA-1-81/TBX3 double-positive and dome-shaped colonies of total colonies) ([1]; bFGF (4 ng/ml) added to 2i/LIF conditions, primed iPSCs)
COc1ccc2c(c1)c(C1=C(c3c[nH]c4ccccc34)C(=O)NC1=O)cn2CCCN(C)C [GO{umlaut over ( )} 6983, 3-[1-[3-(Dimethylamino)propyl]-5-methoxy-1H-indol-3-yl]-4-(1H-indol-3-yl)-1H-pyrrole-2,5-dione] | induced pronounced differentiation and reduced TRA-1-81 expression in the colonies | – | – | –
O=[N+]([O-])c1ccc2c(c1)S(=O)(=O)C=C2 [JAK/STAT3 inhibitor] | – | readily differentiated with greatly reduced expression of TRA-1-81 | maintained their pluripotent properties | –
O=C(NOC[C@H](O)CO)c1ccc(F)c(F)c1Nc1ccc(I)cc1F [PD0325901, N-[(2R)-2,3-Dihydroxypropoxy]-3,4-difluoro-2-[(2-fluoro-4-iodophenyl)amino]-benzamide] | essential for conversion and maintenance of TBX3/TRA-1-81 double-positive dome-shaped colonies | – | – | –
NC(=O)c1ccc(-c2nc(-c3ccccn3)c(-c3ccc4c(c3)OCO4)[nH]2)cc1 [SB431542] | – | no effect on rhesus monkey naive iPSCs | devastating to primed iPSCs self-renewal | –
Cc1c[nH]c(/C=C2\C(=O)Nc3ccccc32)c1CCC(=O)O [SU5402] | – | few TRA-1-81-positive colonies formed | few TRA-1-81-positive colonies formed | –
C[C@@H](N)[C@H]1CC[C@H](C(=O)Nc2ccncc2)CC1 [Y27632, (+)-(R)-trans-4-(1-aminoethyl)-N-(4-pyridyl)cyclohexanecarboxamide+++dihydrochloride] | induced pronounced differentiation and reduced TRA-1-81 expression in the colonies | – | – | –
TGF-β: transforming growth factor-β1 (2 ng/ml, Peprotech) | – | devastating to the self-renewal of naïve iPSCs | – | –
bFGF: recombinant basic fibroblast growth factor, protein factor | Dome-shaped colonies morphologically similar to mouse ESCs appeared | – | – | 8%-10%
